Source: patent publication EP0512754B1 (AMERICAN HOME PRODUCTS CORPORATION, priority 1991, dated 1992)
Like-named read-outs stand apart in the source and are kept apart here.

How the values were obtained:
[1] = system: pinch skin graft from male DBA/2 donors transplanted to male BALB/c recipients; test: pinch skin graft survival time; type: in vivo; settings: DBA/2 donors to BALB/c recipients, treated intraperitoneally; mean ± S.D.
Procedure: (§1) Immunosuppressive activity was evaluated in an in vitro standard pharmacological test procedure to measure lymphocyte proliferation (LAF) and in two in vivo standard pharmacological test procedures. The first in vivo procedure was a popliteal lymph node (PLN) test procedure which measured the effect of compounds of this invention on a mixed lymphocyte reaction and the second in vivo procedure evaluated the survival time of a pinch skin graft.
The second in vivo test procedure is designed to determine the survival time of pinch skin graft from male DBA/2 donors transplanted to male BALB/c recipients. The method is adapted from Billingham R.E. and Medawar P.B., J. Exp. Biol. 28:385-402, (1951). Briefly, a pinch skin graft from the donor is grafted on the dorsum of the recipient as a homograft, and an autograft is used as control in the same region. […] Untreated recipients serve as rejection control. The graft is monitored daily and observations are recorded until the graft becomes dry and forms a blackened scab. This is considered as the rejection day. The mean graft survival time (number of days ± S.D.) of the drug treatment group is compared with the control group.

[2] = system: mixed lymphocyte reaction; test: popliteal lymph node (PLN) test procedure, in vivo mixed lymphocyte reaction; design: species or system C3H mice; settings: for PLN Activity relative to Rapamycin: ratio to rapamycin
Procedure: as §1
A mixed lymphocyte reaction (MLR) occurs when lymphoid cells from genetically distinct animals are combined in tissue culture. Each stimulates the other to undergo blast transformation which results in increased DNA synthesis that can be quantified by the incorporation of tritiated thymidine. Since stimulating a MLR is a function of disparity at Major Histocompatibility antigens, an in vivo popliteal lymph node (PLN) test procedure closely correlates to host vs. graft disease. Briefly, irradiated spleen cells from BALB/c donors are injected into the right hind foot pad of recipient C3H mice. […] On Day 3 and Day 4, tritiated thymidine is given i.p., b.i.d. On Day 5, the hind popliteal lymph nodes are removed and dissolved, and radioactivity counted. The corresponding left PLN serves as the control for the PLN from the injected hind foot. Percent suppression is calculated using the non-drug treated animals as allogenic control.

[3] = system: Candida albicans 3669; test: plate test procedure for antifungal activity; type: cell-based; settings: strain 3669
Procedure: (§2) Antifungal activity of the compounds of this invention was measured against 5 strains of Candida albicans using a plate test procedure for measurement of inhibition. The following represents the typical procedure used. The compound to be tested was placed on sterile dried 1/4" plate disks, and allowed to dry. Agar plates were seeded with fungi and allowed to solidify. The impregnated disks were placed on the seeded Agar surface and incubated for the time required for the particular culture. Results are expressed in MIC (µg/ml) to inhibit growth.
(§3) The compounds of Examples 1 and 4 had the following minimal inhibitory concentrations (50%) against 5 strains of Candida albicans.

[4] = system: Candida albicans ATCC 38246; test: plate test procedure for antifungal activity; type: cell-based; settings: strain ATCC 38246
Procedure: as §2, §3

[5] = system: Candida albicans ATCC 38247; test: plate test procedure for antifungal activity; type: cell-based; settings: strain ATCC 38247
Procedure: as §2, §3

[6] = system: Candida albicans ATCC 10231; test: plate test procedure for antifungal activity; type: cell-based; settings: strain ATCC 10231
Procedure: as §2, §3

[7] = system: Candida albicans ATCC 38248; test: plate test procedure for antifungal activity; type: cell-based; settings: strain ATCC 38248
Procedure: as §2, §3

[8] = system: cells from the thymus of normal BALB/c mice; test: comitogen-induced thymocyte proliferation procedure (LAF); type: cell-based; settings: read-out: LAF IC50
Procedure: as §1
The comitogen-induced thymocyte proliferation procedure (LAF) was used as an in vitro measure of the immunosuppressive effects of representative compounds. Briefly, cells from the thymus of normal BALB/c mice are cultured for 72 hours with PHA and IL-1 and pulsed with tritiated thymidine during the last six hours. […] Cells are harvested and incorporated; radioactivity is determined. Inhibition of lymphoproliferation is assessed in percent change in counts per minute from non-drug treated controls. […] (()^3 (H-control thymus cells - H)^3 rapamycin-treated thymus cells)/(()^3 (H-control thymus cells - H)^3 -test compound-treated cells) [formula]

[9] = thymocytes cultured 72 hours with PHA and IL-1, tritiated thymidine incorporation
[10] = Mus musculus, Thymocyte, 72 h, thymocytes cultured 72 hours with PHA and IL-1, tritiated thymidine incorporation

Compound	Skin Graft Mean survival days [1] [days]	IC50 [8, 9] [nM]	PLN Activity relative to Rapamycin ([2]; ip)	IC50 [8, 10] [nM]	further results
33-Deoxy-33-hydroxyrapamycin [Example 4]	10.0	4.7	–	–	PLN Activity relative to Rapamycin ([2]; route not printed in the cell (method: daily p.o. Day 0 to Day 4)): 0.59; Anti-Candida Activity, Minimal Inhibitory Concentration (50%) [3]: 0.25 µg/mL; Anti-Candida Activity, Minimal Inhibitory Concentration (50%) [4]: >0.4 µg/mL; Anti-Candida Activity, Minimal Inhibitory Concentration (50%) [5]: 0.03 µg/mL; Anti-Candida Activity, Minimal Inhibitory Concentration (50%) [6]: 0.05 µg/mL; Anti-Candida Activity, Minimal Inhibitory Concentration (50%) [7]: 0.006 µg/mL
CO[C@H]1C[C@@H]2CC[C@@H](C)[C@@](O)(O2)C(O)C(=O)N2CCCC[C@H]2C(=O)O[C@H]([C@H](C)C[C@@H]2CC[C@@H](O)[C@H](OC)C2)CC(=O)[C@H](C)/C=C(\C)[C@@H](O)[C@@H](OC)C(=O)[C@H](C)C[C@H](C)/C=C/C=C/C=C/1C (stereo partly shown) [Example 1, 15-Deoxo-15-hydroxyrapamycin]	9.8 ± 1.0	–	-0.07	0.58	PLN Activity relative to Rapamycin ([2]; po): -2.47
CO[C@H]1C[C@@H]2CC[C@@H](C)[C@@](O)(O2)C(O)C(=O)N2CCCC[C@H]2C(=O)O[C@H]([C@H](C)C[C@@H]2CC[C@@H](O)[C@H](OC)C2)CC(O)[C@H](C)/C=C(\C)[C@@H](O)[C@@H](OC)C(=O)[C@H](C)C[C@H](C)/C=C/C=C/C=C/1C (single isomer, unassigned) [Example 3, 15,27-di(deoxo)-15,27-di(hydroxy)rapamycin]	9.5 ± 5.5	0.84	0.92 ip	–	–
CO[C@H]1C[C@@H]2CC[C@@H](C)[C@@](O)(O2)C(O)C(=O)N2CCCC[C@H]2C(=O)O[C@H]([C@H](C)C[C@@H]2CC[C@@H](O)[C@H](OC)C2)CC(O)[C@H](C)/C=C(\C)[C@@H](O)[C@@H](OC)C(=O)[C@H](C)C[C@H](C)/C=C/C=C/C=C/1C (single isomer, unassigned) [Example 2, 15,27-di(deoxo)-15,27-di(hydroxy)rapamycin]	9.2 ± 0.41	–	–	0.67	–
CO[C@H]1C[C@@H]2CC[C@@H](C)[C@@](O)(O2)C(=O)C(=O)N2CCCC[C@H]2C(=O)O[C@H]([C@H](C)C[C@@H]2CC[C@@H](O)[C@H](OC)C2)CC(=O)[C@H](C)/C=C(\C)[C@@H](O)[C@@H](OC)C(=O)[C@H](C)C[C@H](C)/C=C/C=C/C=C/1C [Rapamycin, reference compound]	–	–	–	–	Percent suppression (PLN) ([2]; 6 mg/kg, p.o., against non-drug treated allogenic control): 86%; IC50 ([8]; Mus musculus, Thymocyte, 72 h): 3.3 nM
